Five compounds from PubChem BioAssay AID1745844 (Carcinogenic Potency Database (CPDB), 2022) can be followed below.

The structures appear in SMILES notation. The source made the active and inactive calls. No rule for the calls is given here.

The data set relates to rodent lifetime carcinogenesis bioassay, tumor incidence TD50. The data set can be described thus: chronic cancer bioassays in animals – CPDB, compiled studies (AID 1745844).

Consider `CCc1cccc2c3c([nH]c12)C(CC)(CC(=O)O)OCC3` (stereo not drawn), for which the carcinogen call is “negative (inactive)” (mouse, strain Charles River CD1, females, in feed, site: any site (literature study), lesion: benign tumor, dosed 78 weeks, study length 78 weeks); “negative (inactive)” (mouse, strain Charles River CD1, females, in feed, site: any site (literature study), lesion: several types, types named in the paper, dosed 78 weeks, study length 78 weeks); “negative (inactive)” (mouse, strain Charles River CD1, females, in feed, site: liver, lesion: hepatocellular adenoma, dosed 78 weeks, study length 78 weeks); “negative (inactive)” (mouse, strain Charles River CD1, females, in feed, site: lung, lesion: alveolar/bronchiolar carcinoma, dosed 78 weeks, study length 78 weeks); “negative (inactive)” (mouse, strain Charles River CD1, males, in feed, site: any site (literature study), lesion: benign tumor, dosed 78 weeks, study length 78 weeks); “negative (inactive)” (mouse, strain Charles River CD1, males, in feed, site: any site (literature study), lesion: malignant tumor, dosed 78 weeks, study length 78 weeks). For the same compound, the carcinogen call runs as follows: (mouse, strain Charles River CD1, males, in feed, site: any site (literature study), lesion: several types, types named in the paper, dosed 78 weeks, study length 78 weeks) “negative (inactive)”; (mouse, strain Charles River CD1, males, in feed, site: liver, lesion: hepatocellular adenoma, dosed 78 weeks, study length 78 weeks) “negative (inactive)”; (mouse, strain Charles River CD1, males, in feed, site: liver, lesion: hepatocellular carcinoma, dosed 78 weeks, study length 78 weeks) “negative (inactive)”; (rat, strain Charles River CD (Sprague-Dawley), females, in feed, site: any site (literature study), lesion: benign tumor, dosed 104 weeks, study length 104 weeks) “negative (inactive)”; (rat, strain Charles River CD (Sprague-Dawley), females, in feed, site: any site (literature study), lesion: malignant tumor, dosed 104 weeks, study length 104 weeks) “negative (inactive)”; (rat, strain Charles River CD (Sprague-Dawley), females, in feed, site: any site (literature study), lesion: several types, types named in the paper, dosed 104 weeks, study length 104 weeks) “negative (inactive)”. For the same compound, the carcinogen call reads like this: (rat, strain Charles River CD (Sprague-Dawley), females, in feed, site: liver, lesion: hepatocellular carcinoma, dosed 104 weeks, study length 104 weeks) “negative (inactive)”; (rat, strain Charles River CD (Sprague-Dawley), males, in feed, site: any site (literature study), lesion: benign tumor, dosed 104 weeks, study length 104 weeks) “negative (inactive)”; (rat, strain Charles River CD (Sprague-Dawley), males, in feed, site: any site (literature study), lesion: malignant tumor, dosed 104 weeks, study length 104 weeks) “negative (inactive)”; (rat, strain Charles River CD (Sprague-Dawley), males, in feed, site: any site (literature study), lesion: several types, types named in the paper, dosed 104 weeks, study length 104 weeks) “negative (inactive)”; (rat, strain Charles River CD (Sprague-Dawley), males, in feed, site: liver, lesion: hepatocellular carcinoma, dosed 104 weeks, study length 104 weeks) “negative (inactive)”. The TD50 is, setting by setting: (mouse, strain Charles River CD1, females, in feed, site: any site (literature study), lesion: malignant tumor, dosed 78 weeks, study length 78 weeks) 336 mg/kg/day (inactive); (rat, strain Charles River CD (Sprague-Dawley), females, in feed, site: liver, lesion: neoplastic nodule, dosed 104 weeks, study length 104 weeks) 1010 mg/kg/day (inactive); (rat, strain Charles River CD (Sprague-Dawley), males, in feed, site: liver, lesion: neoplastic nodule, dosed 104 weeks, study length 104 weeks) 1400 mg/kg/day (inactive).

Turning to `O=NN1CCSCC1`, the TD50 is 7.38 mg/kg/day (rat, strain MRC, females, in drinking water, site: any site (literature study), lesion: several types, types named in the paper, dosed 38 weeks, study length 105 weeks); 7.69 mg/kg/day (rat, strain MRC, females, in drinking water, site: esophagus, lesion: several types, types named in the paper, dosed 38 weeks, study length 105 weeks); 22 mg/kg/day (rat, strain MRC, females, in drinking water, site: tongue, lesion: squamous-cell carcinoma, dosed 38 weeks, study length 105 weeks); 2.29 mg/kg/day (rat, strain MRC, males, in drinking water, site: any site (literature study), lesion: several types, types named in the paper, dosed 38 weeks, study length 95 weeks); 4.15 mg/kg/day (rat, strain MRC, males, in drinking water, site: esophagus, lesion: several types, types named in the paper, dosed 38 weeks, study length 95 weeks).

For the compound `C[C@@H]1C[C@]2(O[C@@H]2C)C(=O)O[C@@H]2CCN(C)C/C=C(/COC(=O)[C@]1(C)O)C2=O`, the TD50 (rat, strain ACI, females, in drinking water, site: liver, lesion: hemangioendothelial sarcoma, dosed 68 weeks, study length 68 weeks) is 1.52 mg/kg/day; the TD50 (rat, strain ACI, females, in drinking water, site: liver, lesion: liver-cell adenoma, dosed 68 weeks, study length 68 weeks) is 4.13 mg/kg/day; the TD50 (rat, strain ACI, females, in drinking water, site: liver, lesion: several types, types named in the paper, dosed 68 weeks, study length 68 weeks) is 1.52 mg/kg/day; the TD50 (rat, strain ACI, males, in drinking water, site: liver, lesion: hemangioendothelial sarcoma, dosed 58 weeks, study length 58 weeks) is 4.78 mg/kg/day; the TD50 (rat, strain ACI, males, in drinking water, site: liver, lesion: liver-cell adenoma, dosed 58 weeks, study length 58 weeks) is 1.16 mg/kg/day; the TD50 (rat, strain ACI, males, in drinking water, site: liver, lesion: several types, types named in the paper, dosed 58 weeks, study length 58 weeks) is 0.662 mg/kg/day.

As for `COc1cc(OC)c2c3c(c(=O)oc2c1)CCC3`, for the setting “rat, strain Fischer, males, by gavage, site: liver, lesion: one or several types, types not named, dosed 52 weeks, study length 87 weeks”, the carcinogen call is “negative (inactive)”.

For the compound `C=Cc1ccccc1`, the TD50 reads like this: (mouse, strain B6C3F1, females, by gavage, site: any site (literature study), lesion: several types, types named in the paper, dosed 78 weeks, study length 91 weeks) 625 mg/kg/day; (mouse, strain B6C3F1, females, by gavage, site: liver, lesion: hepatocellular adenoma + hepatocellular carcinoma + neoplastic nodule, dosed 78 weeks, study length 91 weeks) 905 mg/kg/day; (mouse, strain B6C3F1, females, by gavage, site: liver, lesion: hepatocellular adenoma, dosed 78 weeks, study length 91 weeks) 905 mg/kg/day (inactive); (mouse, strain B6C3F1, females, by gavage, site: lung, lesion: alveolar/bronchiolar adenoma + alveolar/bronchiolar carcinoma, dosed 78 weeks, study length 91 weeks) 1380 mg/kg/day; (mouse, strain B6C3F1, males, by gavage, site: any site (literature study), lesion: several types, types named in the paper, dosed 78 weeks, study length 91 weeks) 659 mg/kg/day; (mouse, strain B6C3F1, males, by gavage, site: liver, lesion: hepatocellular adenoma + hepatocellular carcinoma + neoplastic nodule, dosed 78 weeks, study length 91 weeks) 895 mg/kg/day. In addition, the TD50 was 360 mg/kg/day (mouse, strain B6C3F1, males, by gavage, site: lung, lesion: alveolar/bronchiolar adenoma + alveolar/bronchiolar carcinoma, dosed 78 weeks, study length 91 weeks); 400 mg/kg/day (mouse, strain Charles River CD1, females, inhaled, site: any site (literature study), lesion: several types, types named in the paper, dosed 98 weeks, study length 98 weeks); 13600 mg/kg/day (mouse, strain Charles River CD1, females, inhaled, site: liver, lesion: several types, types named in the paper, dosed 98 weeks, study length 98 weeks); 331 mg/kg/day (mouse, strain Charles River CD1, females, inhaled, site: lung, lesion: alveolar/bronchiolar adenoma, dosed 98 weeks, study length 98 weeks); 1300 mg/kg/day (mouse, strain Charles River CD1, females, inhaled, site: lung, lesion: alveolar/bronchiolar carcinoma, dosed 98 weeks, study length 98 weeks); 209 mg/kg/day (mouse, strain Charles River CD1, males, inhaled, site: any site (literature study), lesion: several types, types named in the paper, dosed 104 weeks, study length 105 weeks). In addition, the TD50 runs as follows: (mouse, strain Charles River CD1, males, inhaled, site: liver, lesion: hepatocellular carcinoma, dosed 104 weeks, study length 105 weeks) 2860 mg/kg/day; (mouse, strain Charles River CD1, males, inhaled, site: lung, lesion: alveolar/bronchiolar adenoma, dosed 78 weeks, study length 78 weeks) 465 mg/kg/day; (mouse, strain Charles River CD1, males, inhaled, site: lung, lesion: alveolar/bronchiolar adenoma, dosed 104 weeks, study length 105 weeks) 154 mg/kg/day; (mouse, strain Charles River CD1, males, inhaled, site: lung, lesion: alveolar/bronchiolar carcinoma, dosed 104 weeks, study length 105 weeks) 1770 mg/kg/day; (rat, strain Charles River CD (Sprague-Dawley), females, inhaled, site: liver, lesion: hepatocellular adenoma, dosed 104 weeks, study length 106 weeks) 12200 mg/kg/day (inactive); (rat, strain Charles River CD (Sprague-Dawley), males, inhaled, site: liver, lesion: several types, types named in the paper, dosed 104 weeks, study length 106 weeks) 9930 mg/kg/day (inactive). Moreover, the TD50 (rat, strain Fischer 344, females, by gavage, site: liver, lesion: hepatocellular adenoma + hepatocellular carcinoma + neoplastic nodule, dosed 90 weeks, study length 97 weeks) was determined as 25200 mg/kg/day; the TD50 (rat, strain Fischer 344, males, by gavage, site: any site (literature study), lesion: several types, types named in the paper, dosed 90 weeks, study length 97 weeks) is 3410 mg/kg/day (inactive); the TD50 (rat, strain Sprague-Dawley, females, by gavage, site: any site (literature study), lesion: several types, types named in the paper, dosed 52 weeks, study length 104 weeks) is 12 mg/kg/day; the TD50 (rat, strain Sprague-Dawley, females, inhaled, site: any site (literature study), lesion: malignant tumor, dosed 52 weeks, study length 104 weeks) came out at 205 mg/kg/day; the TD50 (rat, strain Sprague-Dawley, females, inhaled, site: any site (literature study), lesion: several types, types named in the paper, dosed 52 weeks, study length 104 weeks) was determined as 48.7 mg/kg/day; the TD50 (rat, strain Sprague-Dawley, females, inhaled, site: mammary tissue, wider than the gland, lesion: malignant tumor, dosed 52 weeks, study length 104 weeks) was 57.1 mg/kg/day. Also, the TD50 is, setting by setting: (rat, strain Sprague-Dawley, females, inhaled, site: mammary tissue, wider than the gland, lesion: several types, types named in the paper, dosed 52 weeks, study length 104 weeks) 23.3 mg/kg/day; (rat, strain Sprague-Dawley, males, by gavage, site: any site (literature study), lesion: malignant tumor, dosed 52 weeks, study length 104 weeks) 1090 mg/kg/day; (rat, strain Sprague-Dawley, males, by gavage, site: any site (literature study), lesion: several types, types named in the paper, dosed 52 weeks, study length 104 weeks) 1220 mg/kg/day; (rat, strain Sprague-Dawley, males, inhaled, site: any site (literature study), lesion: several types, types named in the paper, dosed 52 weeks, study length 104 weeks) 107 mg/kg/day. Besides, the carcinogen call runs as follows: (rat, strain Charles River CD (Sprague-Dawley), females, inhaled, site: liver, lesion: one or several types, types not named, dosed 52 weeks, study length 52 weeks) “negative (inactive)”; (rat, strain Charles River CD (Sprague-Dawley), males, inhaled, site: liver, lesion: one or several types, types not named, dosed 52 weeks, study length 52 weeks) “negative (inactive)”; (rat, strain Fischer 344, females, by gavage, site: any site (literature study), lesion: several types, types named in the paper, dosed 90 weeks, study length 97 weeks) “negative (inactive)”.

A word on the TD50: it is the dose at which the toxic effect under study appears in half of the subjects.
